According to US20260094269A1, “DIAGNOSIS AND MONITORING OF NEURODEGENERATIVE DISEASES” (MACQUARIE UNIVERSITY, priority 2019, published 2026):

Test system: monocytes
Experiment: Hyperspectral autofluorescence imaging of monocytes isolated from treated ALS / motor neuron disease patients (LDA projection, response score)
Format: in vivo, human
Excerpt: In the particular implementation presented here the “response vectors” were obtained using the following procedure. First, a discriminatory model was developed using a subset of the data based on two groups, the first group comprising the controls C1 C4 and two sets of patient data P2 and P6, while the second group comprising P1, P3, and P4. Second, all data from FIG. 4 was projected on the direction joining the centres of the two cell data clusters for the two groups defined above and a one-dimensional response vector was determined by a projection of each original cell vector from FIG. 4. These one-dimensional response vectors for all cells were presented in a box plot format (each symbol indicates a response vector for a different cell).
The box plots in FIGS. 5 and 6 comprise rectangles with three shades of grey. The thin line in the centre of the rectangle has the darkest shade of grey and represents the median value; the two stripes immediately adjacent to the centre line have the lightest shade of grey and represent the 95% confidence region (1.96×SEM); and the two stripes nearest to the ends of the rectangle have an intermediate shade of grey and represent the first standard deviation. If the light-grey regions of a cluster are not horizontally overlapping, one can be confident of having measured a difference. The values in the plot were shifted by a value of 1.3358, just for sake of placing the controls about zero, although this is an arbitrary shift and, in other examples, the values may be shifted by other amounts. Clusters may be classified according to their mean values: high values may be attributed to “diseased and unresponsive” state, intermediate values may be attributed to “normal”, and low values compared to normal may be interpreted as “drug affected”.
Blood samples were collected using Vacutainer® CPT™ Cell Preparation Tube (BD Australia, catalogue: 362760). 4 mls of whole blood from controls and MND patients were collected into the CPT tube via veinpuncture technique, using the standard technique for BD Vacutainer® Evacuated blood collection tubes. After collection, the tube/blood samples were centrifuged at room temperature (18-25° C.) in a horizontal rotor centrifuge for a minimum of 20 minutes at 1500 to 1800 RCF. After centrifugation, mononuclear cells and platelets located in a whitish layer (Buffy layer just under the plasma layer) were collected using a Pasteur pipette and transferred to a 15 mL size conical centrifuge tube.
Monocytes were isolated from collected buffy layer using a Pan Monocyte Isolation Kit, human (Miltenyi Biotec, catalogue: 130-096-537). The Monocyte Isolation Kit is an indirect magnetic labelling system for the isolation of untouched monocytes from human peripheral blood mononuclear cells (PBMCs). Non-monocytes, i.e. T cells, NK cells, B cells, dendritic cells and basophils, are indirectly magnetically labeled using a cocktail of biotin-conjugated antibodies against CD3, CD7, […], CD19, CD56, CD123 and Glycophorin A, and Anti-Biotin MicroBeads. Isolation of highly pure unlabelled monocytes is achieved by depletion of the magnetically labeled cells. […]

| SMILES | clustering of monocytes (autofluorescence spectral space) relative to healthy control (ALS Patient 1, before (T0) vs three weeks after (T1) start of treatment, FIG. 5(a)) | response score (one-dimensional projection), longitudinal testing (ALS Patients 1 and 2, T0 vs T1-T3 over the course of treatment, FIG. 5(c)) | position of treated patients' cell data in LDA projection (control space vs patient space) (FIG. 4, all patients and controls C1-C4) | position of patient cell data in LDA projection over consecutive tests (FIG. 4, patient (P5), Test1 to Test4) | range of response scores compared with healthy controls (eight other ALS patients (Patients 3-10), FIG. 6) |
| --- | --- | --- | --- | --- | --- |
| CN=C([S-])N/N=C(C)/C(C)=N/NC([S-])=NC.[Cu+2] [CuATSM, Copper ATSM] | normalised towards the healthy cells | statistically strong drug responses from time T1 onwards | appear in the control space or to the left hand side | progressively moving left (and less component 2) into the control/treated space | – |
| Nc1nc2ccc(OC(F)(F)F)cc2s1 [Riluzole] | – | – | – | – | much wider range of response scores than healthy controls |
